Results taken from PubChem BioAssay (NCI).
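Cultured in 96-well plates, cells were exposed to test compound for 48 hours across five concentrations. At the GI50, growth is halved. TGI: concentration producing complete growth inhibition.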

Key:
Assay in all cases: NCI anticancer screen, dose series, 48 h
[1] = tested on: UO-31 renal
[2] = tested on: NCI-H522 lung
[3] = tested on: SNB-75 CNS
[4] = tested on: SK-MEL-5 melanoma
[5] = tested on: XF 498 CNS
[6] = tested on: SW-620 colon
[7] = tested on: M19-MEL melanoma
[8] = tested on: NCI-H460 lung
[9] = tested on: DU-145 prostate
[10] = tested on: BT-549 breast

C[N+](C)(C)CC1CCC/C1=N\OC(=O)c1ccccc1 (configuration not stated)
TGI [1]: > 100 µM | TGI [2]: > 100 µM | TGI [3]: > 100 µM | TGI [4]: > 100 µM | TGI [5]: > 100 µM | TGI [6]: > 100 µM | TGI [7]: > 100 µM

CS/C(=C(\S)c1ccccc1)c1ccccc1
TGI [1]: > 100 µM | TGI [8]: > 100 µM | TGI [2]: > 100 µM | TGI [3]: > 100 µM | TGI [4]: > 100 µM | TGI [5]: > 100 µM | TGI [6]: > 100 µM | TGI [7]: > 100 µM

CC(=O)N1CCC(=O)/C(=C/c2ccccc2)C1
TGI [1]: > 100 µM | TGI [8]: > 100 µM | TGI [3]: > 100 µM | TGI [4]: > 100 µM | TGI [5]: > 100 µM | TGI [6]: 34.8 µM | TGI [7]: 58.3 µM

CC1(C)CC(=O)CC(=Nc2ccc([N+](=O)[O-])cc2)C1
TGI [1]: > 100 µM | TGI [8]: > 100 µM | TGI [2]: > 100 µM | TGI [3]: > 100 µM | TGI [4]: > 100 µM | TGI [5]: > 100 µM | TGI [7]: > 100 µM

C[C@]12CCC(=O)C=C1CC[C@@H]1C2CC[C@]2(C)Nc3[nH]ncc3CC12 (some centres not stated)
TGI [1]: > 100 µM | TGI [8]: > 100 µM | TGI [3]: > 100 µM | TGI [4]: > 100 µM | TGI [5]: > 100 µM | TGI [6]: > 100 µM | TGI [7]: > 100 µM

COC(=O)C1=C(C(=O)OC)C2=S(SC3=C2CCCC3)S1 (configuration not stated)
TGI [1]: > 100 µM | TGI [8]: > 100 µM | TGI [2]: 11.3 µM | TGI [3]: 62.7 µM | TGI [4]: 4.71 µM | TGI [6]: 13 µM | TGI [7]: > 100 µM

CCN(CC)CCSc1c2ccccc2nc2c(OC)ccc(OC)c12
TGI [1]: 33.9 µM | TGI [8]: 36.4 µM | TGI [2]: 19.8 µM | TGI [3]: > 70 µM | TGI [4]: 16.5 µM | TGI [5]: > 21.1 µM | TGI [7]: 38.2 µM

CN(C)CCNC(=O)c1cccc2c(Nc3ccc(S(=O)(=O)N=C(N)N)cc3)c3ccccc3nc12
TGI [1]: 48.6 µM | TGI [8]: 18.7 µM | TGI [2]: 17.3 µM | TGI [3]: 43.8 µM | TGI [4]: 27.9 µM | TGI [5]: 47.4 µM | TGI [6]: > 100 µM | TGI [7]: 59.9 µM

Cn1c2ccccc2c2ncc3[nH]c4ccccc4c3c21
TGI [1]: 26.9 µM | TGI [8]: 32.2 µM | TGI [2]: 33.2 µM | TGI [3]: 35.6 µM | TGI [4]: 40 µM | TGI [5]: 31.8 µM | TGI [6]: 71 µM | TGI [7]: 49.1 µM

CCOC(=O)C1SC(=Nc2ccccc2)N=C1C (configuration not stated)
TGI [1]: > 100 µM | TGI [8]: > 100 µM | TGI [2]: > 100 µM | TGI [3]: 88.7 µM | TGI [5]: > 100 µM | TGI [6]: > 100 µM | TGI [7]: > 100 µM

Cn1c(=O)c(Oc2ccc(F)cc2)cc2cnc(NC3CCOCC3)nc21
GI50 [1]: > 10.5 µM | TGI [1]: > 18.6 µM | GI50 [8]: > 25 µM | TGI [8]: > 25 µM | GI50 [9]: > 25 µM | TGI [9]: > 25 µM | GI50 [2]: > 25 µM | TGI [2]: > 25 µM | GI50 [3]: > 25 µM | TGI [3]: > 25 µM | GI50 [4]: > 25 µM | TGI [4]: > 25 µM | GI50 [10]: > 25 µM | TGI [10]: > 25 µM | GI50 [6]: > 25 µM | TGI [6]: > 25 µM

O=[N+]([O-])c1ccc(-c2cnc3ccccn23)cc1
TGI [1]: > 100 µM | TGI [8]: > 100 µM | TGI [2]: > 100 µM | TGI [3]: 92 µM | TGI [4]: > 100 µM | TGI [5]: > 100 µM | TGI [6]: > 100 µM | TGI [7]: > 100 µM

CS(=O)(=O)Nc1cc(-c2ccc3ncnc(Nc4c(Cl)ccc5c4OCO5)c3c2)cnc1Cl
GI50 [1]: 0.0403 µM | TGI [1]: 0.938 µM | GI50 [8]: 0.236 µM | TGI [8]: 4.76 µM | GI50 [9]: 0.24 µM | TGI [9]: 5.01 µM | GI50 [2]: 0.224 µM | TGI [2]: 2.56 µM | TGI [3]: 0.0972 µM | GI50 [4]: 0.191 µM | TGI [4]: 0.465 µM | GI50 [10]: 0.132 µM | TGI [10]: 1.04 µM | GI50 [6]: 0.327 µM | TGI [6]: 2.99 µM

O=C1CCC(=O)c2c1c(O)c1ccncc1c2O
TGI [1]: 31.4 µM | TGI [8]: 30.7 µM | TGI [2]: 24.5 µM | TGI [3]: 34.7 µM | TGI [4]: 23.5 µM | TGI [5]: 32.7 µM | TGI [6]: 35.8 µM

C[C@@]12CCC[C@@](C)(C(=O)O)C1CC[C@]13CC(=O)[C@](CO)(C1)[C@@H](O)CC32 (some centres not stated)
GI50 [1]: > 100 µM | TGI [1]: > 100 µM | GI50 [8]: > 100 µM | TGI [8]: > 100 µM | GI50 [9]: > 100 µM | TGI [9]: > 100 µM | GI50 [2]: > 100 µM | TGI [2]: > 100 µM | GI50 [3]: > 100 µM | TGI [3]: > 100 µM | GI50 [4]: > 100 µM | TGI [4]: > 100 µM | GI50 [10]: > 100 µM | TGI [10]: > 100 µM | GI50 [6]: > 100 µM | TGI [6]: > 100 µM

O=S(=O)(Nc1ccc(Cl)cc1Cl)c1ccc(-c2cnc(C3CC3)o2)cc1
GI50 [1]: 1.06 µM | TGI [1]: 37.1 µM | GI50 [8]: 0.466 µM | TGI [8]: > 40.4 µM | GI50 [9]: 2.6 µM | TGI [9]: > 100 µM | GI50 [2]: 0.435 µM | TGI [2]: 17.3 µM | GI50 [3]: 0.185 µM | TGI [3]: 0.75 µM | GI50 [4]: 0.555 µM | TGI [4]: 14.1 µM | GI50 [10]: 0.663 µM | TGI [10]: 36.3 µM | GI50 [6]: 0.423 µM | TGI [6]: > 100 µM

O=C(Nc1cc(C(F)(F)F)ccc1Cl)c1cccc(NC2=C(Cl)C(=O)N(Cc3ccccc3)C2=O)c1
GI50 [1]: 0.7 µM | TGI [1]: 58.2 µM | GI50 [8]: 38.2 µM | TGI [8]: > 100 µM | GI50 [9]: 54.4 µM | TGI [9]: > 100 µM | GI50 [2]: 6.8 µM | TGI [2]: 45.3 µM | GI50 [3]: > 100 µM | TGI [3]: > 100 µM | GI50 [4]: 12.8 µM | TGI [4]: > 100 µM | GI50 [10]: 15.6 µM | TGI [10]: > 100 µM | GI50 [6]: 52.7 µM | TGI [6]: > 100 µM

C#Cc1nc(Nc2cc(C)[nH]n2)c2ccccc2n1
GI50 [1]: 0.222 µM | TGI [1]: 0.792 µM | GI50 [8]: 0.346 µM | TGI [8]: 1.43 µM | GI50 [9]: 0.396 µM | TGI [9]: 1.7 µM | GI50 [2]: 0.476 µM | TGI [2]: 1.99 µM | GI50 [3]: 0.167 µM | TGI [3]: 0.513 µM | GI50 [4]: 0.139 µM | TGI [4]: 0.28 µM | GI50 [10]: 0.233 µM | TGI [10]: 0.475 µM | GI50 [6]: 0.327 µM | TGI [6]: 1.3 µM

CC1(Br)Cc2ccccc2C1=O (configuration not stated)
TGI [1]: 20.2 µM | GI50 [8]: > 100 µM | TGI [8]: > 100 µM | TGI [9]: 33.6 µM | GI50 [2]: 0.318 µM | TGI [2]: 1.41 µM | TGI [3]: 27 µM | GI50 [4]: 2.75 µM | TGI [4]: 12.5 µM | TGI [10]: 5.03 µM | GI50 [6]: 0.444 µM | TGI [6]: 2.69 µM

C[Si](C)(C)/C(I)=C/CO
TGI [1]: 71.5 µM | TGI [8]: 46.3 µM | TGI [2]: 34.5 µM | TGI [3]: > 100 µM | TGI [4]: 34.6 µM | TGI [5]: 31.9 µM | TGI [6]: 47.8 µM | TGI [7]: 53.1 µM

Cc1ccc(NC(=O)CCc2nnc(N)o2)cc1
TGI [1]: > 100 µM | TGI [8]: > 100 µM | TGI [2]: > 100 µM | TGI [3]: > 100 µM | TGI [4]: > 100 µM | TGI [5]: > 100 µM | TGI [6]: > 100 µM | TGI [7]: > 100 µM

C[C@H](Nc1cc(Cl)nc2c1cnn2[C@@H]1O[C@H](COP(=O)(O)CP(=O)(O)O)[C@@H](O)[C@H]1O)c1ccccc1F
GI50 [1]: > 100 µM | TGI [1]: > 100 µM | GI50 [8]: > 100 µM | TGI [8]: > 100 µM | GI50 [9]: > 100 µM | TGI [9]: > 100 µM | GI50 [2]: > 100 µM | TGI [2]: > 100 µM | GI50 [3]: > 100 µM | TGI [3]: > 100 µM | GI50 [4]: > 100 µM | TGI [4]: > 100 µM | GI50 [10]: > 100 µM | TGI [10]: > 100 µM | GI50 [6]: > 100 µM | TGI [6]: > 100 µM
